# Where two headings read alike, the source gives them in different places. Marks after values point to notes of the source that are not given here.
# Tests used:
# CEM cells = assay: Incorporation of [3H]thymidine, [3H]uridine and [3H]leucine into CEM cell material; assay type: cell-based; details: 200 μg/mL; 12 hour incubation period
# Method: The incorporation of [methyl-^3H]thymidine, [^3H]uridine and [^3H]leucine into the methanol-insoluble CEM cell fraction was also measured in microplates. To each well were added 10^5 CEM cells, 5.9 pmol (0.25 μCi) of [methyl-^3H]thymidine, 38 pmol (1.0 μCi) of [^3H]uridine and 19 pmol (1.0 μCi) [4,5-^3H]leucine, and a given amount of the test compound. […] At the end of this incubation period, the contents of the wells (200 μl) were brought onto 25-mm glass fiber filters (type A/G; Gelman Instrument Co., Ann Arbor, Mich.) mounted on a Millipore 3025 sampling manifold apparatus. The filters were washed twice with cold PBS (phosphate-buffered saline), twice with cold 10% trichloroacetic acid, twice with cold 5% trichloroacetic acid, once with cold ethanol, and once with cold ether. The filters were then allowed to dry for 10 min at 60° C. and assayed for radioactivity in a toluene-based scintillant.
# HIV-2(ROD) [1] = assay: HIV-2(ROD)-induced cytopathicity in MT-4 cell cultures; assay type: cell-based
# Excerpt: (§1) Viruses. The origins of MSV, HIV type 1 (HIV-1) (strain IIIB and Ba-L), HIV-2 (strain ROD) and FIV (strain Petaluma) have been described previously (Balzarini et al., AIDS 5: 21-28, 1991; De Clercq et al., Proc. Soc. Exp. Biol. Med. 137:590-594, 1971; Egberink et al., Proc. Natl. Acad. Sci. 87:3087-3091, 1990; Hartmann et al., Antiviral Chem. Chemother. 5:13-19, 1994; Popovic et al., Science 224:497-500, 1984). HIV-1(IIIB) and HIV-2(ROD) stocks were obtained from supernatants of virus-infected MT-4 cell cultures. HIV-1BaL was expanded in human primary M/M, whose supernatants were collected, filtered and stored at −80° C. before use. Characteristics of viral stocks used for this study were 2.1×10^8 HIV-RNA genomes/ml (corresponding to 35 ng of p24 antigen) and 5,000 tissue culture infectious doses 50% per ml (TCID50/ml) as assessed by virus titration in other primary M/M cultures. The isolation and characterization of the clinical HIV-1 isolates L1S, L6S and L6S/PMEA has been reported (Thormar et al., Proc. Natl. Acad. Sci. USA 93:3283-3287, 1995; Van Laethem et al., AIDS 15:553-561, 2001). […] HIV-1/L6S/PMEA is the clinical isolate HIV-1/L6S that has been isolated after culturing the virus for 11 passages in the presence of increasing concentrations of PMEA (adefovir).
# (§2) In vitro antiviral assays. The activity against HIV-1- and HIV-2-induced cytopathicity was examined in MT-4 cell cultures at day 5 post infection and based on the determination of cell viability by trypan blue dye staining or in CEM cell cultures at day 4 to 5 post infection and based on the microscopical examination of virus-induced giant cell formation. HIV-1 and HIV-2 were added at 100 CCID50 to the cell cultures.
# HIV-2(ROD) [2] = assay: HIV-2(ROD)-induced cytopathicity in CEM cell cultures; assay type: cell-based; details: for EC50: Human immunodeficiency virus 2, CCRF-CEM, read-out: EC50 HIV-2 (ROD) (CEM)
# Excerpt: as §1, §2
# HIV-1/L6S = assay type: cell-based; details: measured against the laboratory HIV-1/IIIB strain in CEM cell cultures
# Excerpt: as §1, §2
# HIV-1/L1S = assay type: cell-based; details: measured against the laboratory HIV-1/IIIB strain in CEM cell cultures
# Excerpt: as §1, §2
# HIV-1/L6S/PMEA = assay type: cell-based; details: measured against the laboratory HIV-1/IIIB strain in CEM cell cultures
# Excerpt: as §1, §2
# HIV-1(IIIB) [3] = assay: HIV-1(IIIB)-induced cytopathicity in MT-4 cell cultures; assay type: cell-based; details: Table 2; for EC50: Human immunodeficiency virus 1, IIIB, MT4
# Excerpt: as §1, §2
# MSV [4] = assay: MSV-induced transformation of murine embryo fibroblast C3H/3T3 cell cultures; assay type: cell-based; details: MSV-induced C3H cell transformation, Table 2; for EC50: Mus musculus, read-out: EC50 MSV (C3H)
# Method: The inhibitory effect of the test compounds on MSV-induced transformation of murine embryo fibroblast C3H/3T3 cell cultures was examined microscopically at day 6 post infection. MSV was added at 75 focus-forming units to the cell cultures. The detailed procedures for the antiretroviral evaluations has been described in detail before (Balzarini et al., AIDS 5:21-28, 1991; Balzarini et al., Antimicrob. Agents Chemother. 37:332-338, 1993; De Clercq et al., Proc. Soc. Exp. Biol. Med. 137:590-594, 1971).
# Toxicity in CrFK cells = assay type: cell-based, feline; details: cat, Table 2
# [5] = MT-4 cell toxicity (trypan blue exclusion); assay type: cell-based; details: human, reduction of cell viability, Table 2
# Method: Cytostatic and antimetabolic effect of acyclic nucleoside phosphonates in vitro. The assays to examine the inhibition of CEM cell growth by the test compounds have been described previously (Balzarini et al., AIDS 5:21-28, 1991). The 50% cytostatic concentration (CC50) was defined as the concentration of compound that reduced the number of living cells by 50% . To measure MT-4 cell toxicity of the test compounds, 5×10^4 MT-4 cells were incubated in the wells of 96-well microplates in the presence or absence of different concentrations of the test compounds for 5 days at 37° C. The CC50 was then calculated from the number of living cells counted under a microscope by the trypan blue exclusion method.
# HIV-1(IIIB) [6] = assay: HIV-1(IIIB) p24 antigen production in PBL (PHA-stimulated PBMC); assay type: cell-based; details: for EC50: Human immunodeficiency virus 1, IIIB, PBMC
# Method: Peripheral blood mononuclear cells (PBMC) from healthy donors were isolated by density centrifugation (Lymphoprep; Nycomed Pharma, AS Diagnostics, Oslo, Norway) and stimulated with phytohemagglutin (PHA) (Sigma Chemical Co., Bornem, Belgium) for 3 days. The activated cells (PHA-stimulated blasts) were washed with PBS and viral infections were done as described by the AIDS clinical trial group protocols. Briefly, PBMCs (2×10^5/200 well) were plated in the presence of serial dilutions of the test compound and were infected with HIV stocks at 1000 CCID50 per mL. At day 4 post-infection, 125 μl of the supernatant of the infected cultures was removed and replaced with 150 μl of fresh medium containing the test compounds at the appropriate concentrations. At 7 days after plating the cells, p24 antigen was detected in the culture supernatant by an enzyme-linked immunosorbent assay (NEN, Paris, France).
# MSV [7] = assay type: in vivo; details: for Number of Mice not Developing a Tumor (percent): intraperitoneal, 5 daily doses, newborn NMRI mice
# [8] = test system: HIV-1(IIIB) strains containing L100I, K103N, Y181C and Y188H mutations in the RT; assay: HIV-1(IIIB) strains with NNRTI-specific RT mutations in CEM cell cultures; assay type: cell-based; details: data not shown
# Method: as §2
# [9] = 20 mg/kg, premature death not taken into account
# [10] = 50 mg/kg, premature death not taken into account
SMILES,"Inhibition of [3H]dThd, [3H]Urd and [3H]leu incorporation into TCA-insoluble CEM cell material (macromolecular synthesis) (CEM cells)",-Fold Resistance HIV-1/L6S (HIV-1/L6S),-Fold Resistance HIV-1/L1S (HIV-1/L1S),-Fold Resistance HIV-1/L6S/PMEA (HIV-1/L6S/PMEA),EC50 (HIV-1(IIIB) [3]),EC50 (MSV [4]),Number of Long-Term Survivors (%) (>30 days) (MSV [7]; 8 mg/kg),Number of Mice not Developing a Tumor (percent) (MSV [7]; 8 mg/kg),Number of Mice not Developing a Tumor (percent) (MSV [7]; 20 mg/kg),Number of Long-Term Survivors (%) (>30 days) (MSV [7]; [9]),EC50 HIV-2 (ROD) (MT-4) (HIV-2(ROD) [1]; Table 2),"EC50 HIV-2 (ROD) (CEM) (HIV-2(ROD) [2]; giant cell formation, Table 2)",EC50 HIV-1 (IIIB) (MT-4) (HIV-1(IIIB) [3]),EC50 MSV (C3H) (MSV [4]),EC50 HIV-1(IIIB) in PBL (HIV-1(IIIB) [6]),Number of Long-Term Survivors (%) (>30 days) (MSV [7]; 2 mg/kg),Number of Mice not Developing a Tumor (percent) (MSV [7]; 2 mg/kg),Number of Mice not Developing a Tumor (percent) (MSV [7]; 50 mg/kg),Number of Long-Term Survivors (%) (>30 days) (MSV [7]; [10]),"Activity against NNRTI-specific mutant virus strains, in words [8]",other results
"Nc1ncnc2c1ncn2CCOCP(=O)(O)O [PMEA, 9-[(2-phosphono-methoxy)ethyl]adenine, reference compound]",not inhibitory,2.7 fold,2.0 fold,7.3 fold,1.3 ± 1.1 µg/mL,0.62 ± 0.27 µg/mL,77%,44%,89%,94%,,,,,,,,,,,"EC50 (HIV-2(ROD) [1]; Human immunodeficiency virus 2, MT4, Table 2, read-out: EC50 HIV-2 (ROD) (MT-4)): 1.9 µg/mL; EC50 (HIV-2(ROD) [2]; giant cell formation, Table 2): 1.9 ± 1.1 µg/mL; CC50 (Toxicity in CrFK cells): 18 µg/mL; CC50 at 5 days [5]: 28 ± 12 µg/mL; EC50 (HIV-1(IIIB) [6]; p24 antigen production, Table 2, read-out: EC50 HIV-1 (IIIB) (PBL)): 0.55 ± 0.41 µg/mL; EC50 (HIV-1(IIIB) [6]; read-out: EC50 HIV-1(IIIB) in PBL): 1.9 µg/mL; Number of Long-Term Survivors (%) (>30 days) (MSV [7]; 4 mg/kg): 35%; Number of Mice not Developing a Tumor (percent) (MSV [7]; 4 mg/kg): 5%; Number of Mice not Developing a Tumor (percent) (MSV [7]; 100 mg/kg): 100^d percent"
"C[C@H](Cn1cnc2c(N)ncnc21)OCP(=O)(O)O [(R)-PMPA, (R)-9-[(2-phosphonomethoxy)-propyl]adenine, reference compound]",not inhibitory,11 fold,2.3 fold,54 fold,,,83%,65%,92%,100%,0.52 µg/mL,0.43 ± 0.41 µg/mL,0.46 ± 0.006 µg/mL,1.4 ± 0.9 µg/mL,0.33 µg/mL,31%,0%,100%,100%,,"EC50 HIV-1 (IIIB) (PBL) (HIV-1(IIIB) [6]; p24 antigen production, Table 2): 0.09 ± 0.03 µg/mL"
"C[C@H](COc1cc(N)nc(N)n1)OCP(=O)(O)O [Compound 11, 2,4-diamino-6-(R)-[2-(phosphonomethoxy)propoxy]pyrimidine]","Neither compounds 1 nor 2, nor compound 11 were inhibitory",3.5 fold,1.9 fold,30 fold,,,40%,15%,20%,40^c %,1.6 ± 0.6 µg/mL,1.3 ± 0.4 µg/mL,3.0 ± 0.4 µg/mL,0.05 ± 0.01 µg/mL,0.12 µg/mL,5%,0%,,,retained full activity,
"Nc1cc(SCCOCP(=O)(O)O)nc(N)n1 [Compound 2, 2,4-diamino-6-{[2-(phosphonomethoxy)ethyl]-sulfanyl}pyrimidine]","Neither compounds 1 nor 2, nor compound 11 were inhibitory",1.4 fold,2.1 fold,14 fold,2.5 ± 0.3 µg/mL,1.7 ± 0.9 µg/mL,20%,0%,0%,20%,,,,,,0%,0%,0%,20%,retained full activity,"EC50 (HIV-2(ROD) [1]; Human immunodeficiency virus 2, MT4, read-out: EC50 HIV-2 (ROD) (MT-4)): 2.9 µg/mL; EC50 (HIV-2(ROD) [2]): 3 ± 1.4 µg/mL; CC50 (Toxicity in CrFK cells; CrFK cells): 42 µg/mL; CC50 at 5 days ([5]; MT-4 cells): ≥ 100 µg/mL; Prevention of tumor formation, in words (MSV [7]; all doses tested): unable to prevent tumor formation; Long-term survivors (MSV [7]; dose of 8-50 mg/kg): 20%; Delay of MSV-induced tumor formation, in words (MSV [7]; mouse, in vivo): only showed a pronounced delay in tumor formation at a dose of 50 mg/kg"
